Results from patent US12680077B2, “Generating populations of human blood and blood vessel progenitors from pluripotent stem cells” (The Board of Trustees of the Leland Stanford Junior …, priority 2020, dated 2026).

What was measured:
Format in all cases: cell-based, human
[1] = test system: day 6 hPSC-derived hemogenic endothelium; experiment: Differentiation of day 6 hemogenic endothelium into day 9 HSC-like cells (qPCR, flow cytometry); details: for expression of GATA1 and CD45RA: SR1 and UM171 applied together, days 6-9; for formation of hPSC-derived HSC-like cells: presence vs absence of both UM171 and SR1, 3 days, flow cytometry for CD45+ CD45RA- on day 9
Method: FIG. 13: Optimizing the generation of, and characterizing, hPSC-derived HSC-like cells. […] B) qPCR was performed during hPSC differentiation into HSC-like cells every 24 hours; gene expression was normalized such that undifferentiated hPSCs=1.0. […] D) Flow cytometry strategy to purify i) CD144^+ CD45^+ CD45RA^− hPSC-derived day-9 HSC-like cells and ii) CD34^+ CD90^+ cord blood HSPCs vs. CD34^+ CD90^− cord blood non-HSCs (expanded for 3 days ex vivo prior to FACS sorting) for transcriptional analysis.
Day 6-9 (HSC-like cell induction, 72 hours [Step 5b]). Day 6 hemogenic endothelium cells were briefly washed (DMEM/F12, Thermo Fisher) and then differentiated towards HSC-like cells in CDM3 media supplemented with Forskolin (10 μM), IL1β (5 ng/mL, R&D Systems), LIF (20 ng/mL), OSM (10 ng/mL), SB505124 (2 μM), SR1 (750 nM, Cellagen Technology) and UM171 (75 nM, ApexBio) for 72 hours. HSC-like cell induction media was refreshed every 24 hours.
Flow cytometry. Undifferentiated and differentiated hPSCs were dissociated by incubation in TrypLE Express (Gibco) for 5 minutes at 37° C. Subsequently, dissociated cells in TrypLE Express were diluted 1:10 in DMEM/F12 and centrifuged (pelleted) at 500 g for 5 minutes. Each cell pellet was resuspended in FACS buffer (PBS+1 mM EDTA [Invitrogen]+2% v/v FBS [Atlanta Bio]+1% Penicillin/Streptomycin [Gibco]) supplemented with fluorescently-conjugated primary antibodies, and antibody staining occurred for 30 minutes on ice protected from light. After staining, cells were washed twice with FACS buffer and resuspended in 200 μL FACS buffer with DAPI (1:10,000, Biolegend) for live/dead discrimination. Samples were run on a Beckman Coulter CytoFlex analyzer (Stanford Stem Cell Institute FACS Core). For data analysis, cells were gated based on forward and side scatter with height and width used for doublet discrimination. Subsequently, live cells that were negative for DAPI were gated for all marker analyses and calculations of population frequency.
Quantitative PCR. Undifferentiated or differentiated hPSCs were lysed in 350 μL of RLT Plus Buffer and RNA was extracted using the RNeasy Plus Mini Kit (Qiagen) according to the manufacturer's protocol. 300 ng of total RNA was reverse transcribed into cDNA for qPCR using the High-Capacity cDNA Reverse Transcription Kit (Applied Biosystems) according to the manufacturer's protocol. qPCR was performed in 384-well format as previously described (Loh et al., 2016), using gene-specific forward and reverse primers on a QuantStudio 5 qPCR machine (Thermo Fisher). Expression of all genes was normalized to the levels of the reference gene YWHAZ.

[2] = test system: hPSC-derived day-3 trunk artery cells; experiment: Differentiation of hPSC-derived day-3 trunk artery cells into hemogenic endothelium / HSC-like cells (qPCR, flow cytometry); details: 24 hours, OSM and LIF withheld together
Method: (§1) FIG. 4: Efficient generation of trunk artery and hemogenic endothelium from hPSCs within 3 and 6 days, respectively. A) Cartoon of the strategy to generate trunk artery, hemogenic endothelium and HSC-like cells. B) Retinoic acid (RA) signaling induces HOXA1-5 genes in hPSC-derived trunk artery cells; day 1 hPSC-derived primitive streak cells were differentiated into trunk artery cells over the course of 48 hours, in the presence or absence of an RA agonist (TTNPB). C) Flow cytometry (left) and qPCR (right) of hPSC-derived trunk artery cells; for the qPCR data, gene expression is normalized for each gene to undifferentiated hPSCs (gene expression levels in hPSCs=1.0); as a negative control, hPSC-derived artery cells (white bar, generated in the absence of RA agonist) is shown. D) hPSC-derived day-3 trunk artery cells were differentiated into hemogenic endothelium for 24 hours in the complete hemogenic endothelium medium (Forskolin, SB505124, OSM and LIF), or in media where either Forskolin was withheld; SB505124 was withheld; or both OSM and LIF were withheld.
FIG. 12: Optimizing the generation of trunk artery, hemogenic endothelium and HSC-like cells from hPSCs. A) Retinoic acid (RA) signaling induces HOXA1-5 genes in hPSC-derived trunk artery cells; day 1 hPSC-derived primitive streak cells were differentiated into trunk artery cells over the course of 48 hours, in the presence or absence of RA agonists (ATRA, AM580 or TTNPB) on day 2 alone (for 24 hours), day 3 alone (for 24 hours) or day 2-3 interval (for 48 hours) B) hPSC-derived trunk artery cells can be generated in defined conditions on a defined extracellular matrix (ECM); hPSCs were plated on Geltrex (an undefined ECM matrix); bulk laminin; or recombinant vitronectin or laminin-511. C) hPSCs were differentiated into day-3 artery cells (without RA agonist) or day-3 trunk artery cells (with RA agonist); and then were further differentiated over the course of 6 further days into day-9 HSC-like cells. […]
(§2) Quantitative PCR. […]

[3] = test system: day 1 hPSC-derived primitive streak cells; experiment: Differentiation of day 1 primitive streak into trunk artery cells with RA agonists (qPCR, flow cytometry); details: for HOXA1-HOXA5 expression by day 3: RA agonist for 48 hours (days 2-3), qPCR; for formation of CD144+ CD43+ blood progenitors by day 9: RA agonist on days 2-3, then 6 further days of differentiation
Method: as §1
FIG. 12: Optimizing the generation of trunk artery, hemogenic endothelium and HSC-like cells from hPSCs. A) Retinoic acid (RA) signaling induces HOXA1-5 genes in hPSC-derived trunk artery cells; day 1 hPSC-derived primitive streak cells were differentiated into trunk artery cells over the course of 48 hours, in the presence or absence of RA agonists (ATRA, AM580 or TTNPB) on day 2 alone (for 24 hours), day 3 alone (for 24 hours) or day 2-3 interval (for 48 hours) B) hPSC-derived trunk artery cells can be generated in defined conditions on a defined extracellular matrix (ECM); hPSCs were plated on Geltrex (an undefined ECM matrix); bulk laminin; or recombinant vitronectin or laminin-511. C) hPSCs were differentiated into day-3 artery cells (without RA agonist) or day-3 trunk artery cells (with RA agonist); and then were further differentiated over the course of 6 further days into day-9 HSC-like cells. […] G) qPCR of hPSC differentiation into trunk arteries (day 3) and their conversion into hemogenic endothelium (day 6); qPCR data are normalized such that for each gene, expression levels in undifferentiated hPSCs=1.0.
Day 2 (trunk dorsal lateral mesoderm induction, 24 hours [Step 2b]). Day 1 mid primitive streak cells were briefly washed (DMEM/F12, Thermo Fisher) and then differentiated towards dorsal lateral mesoderm in CDM2 media supplemented with BMP4 (40 ng/mL), GDC-0941 (2.5 μM, Cellagen Technology), Forskolin (10 μM, Tocris), SB-505124 (2 μM, Tocris), VEGF (100 ng/mL, R&D Systems), XAV939 (1 μM, Tocris), AA2P (200 μg/mL) and TTNPB (0.5 nM) for 24 hours (i.e., the same media as dorsal lateral mesoderm induction, with the addition of TTNPB). […]
as §2

[4] = test system: day 1 hPSC-derived primitive streak; experiment: Dorsal lateral mesoderm induction from day 1 primitive streak (qPCR on day 2); details: day 2 of differentiation, 24 hours
Method: FIG. 1: Efficient generation of human primitive streak and dorsal lateral mesoderm from hPSCs. A) Chronology of artery and vein development in vivo within mouse embryos (top) and in vitro from human pluripotent stem cells (hPSCs; bottom). B) Efficient generation of MIXL1^+ mid primitive streak within 24 hours of hPSC differentiation, as assayed by flow cytometry of a MIXL1-GFP reporter hESC line C) In vivo identification of candidate dorsal lateral mesoderm: from a scRNAseq profile of the E7.0 mouse embryo, Hand1^+ Elf5^− lateral mesoderm was computationally identified and then sub-clustered; marker genes shown superimposed on t-SNE (top) and in violin plots (below [CPM: counts per million]). […]
as §2

CC(C)n1cnc2c(NCCc3ccc(O)cc3)nc(-c3csc4ccccc34)nc21 [SR1]
expression of GATA1 and CD45RA [1]: decreased
formation of hPSC-derived HSC-like cells [1]: enhanced

LIF: GP130 agonist
RUNX1 expression by day 4 upon individual withdrawal of the agent from hemogenic endothelium medium [2]: reduced

AM580
HOXA1-HOXA5 expression by day 3 [3]: enhanced
formation of CD144+ CD43+ blood progenitors by day 9 [3]: promote

C/C(=C\c1ccc(C(=O)O)cc1)c1ccc2c(c1)C(C)(C)CCC2(C)C [TTNPB]
HOXA1-HOXA5 expression by day 3 [3]: enhanced
formation of CD144+ CD43+ blood progenitors by day 9 [3]: promote

IL1: inflammatory signal IL1β
blood formation in vitro ([1]; inflammatory signal added days 6-9): modestly promoted

Cc1cccc(-c2[nH]c(C(C)(C)C)nc2-c2ccc3c(c2)OCO3)n1 [SB505124, 2-[4-(1,3-Benzodioxol-5-yl)-2-(1,1-dimethylethyl)-1H-imidazol-5-yl]-6-methyl-pyridine]
RUNX1 expression by day 4 upon individual withdrawal of the agent from hemogenic endothelium medium [2]: reduced

Cn1nnc(-c2ccc3c(c2)[nH]c2nc(Cc4ccccc4)nc(NC4CCC(N)CC4)c23)n1 (centres unmarked) [UM171]
expression of GATA1 and CD45RA [1]: decreased
formation of hPSC-derived HSC-like cells [1]: enhanced

VEGF
expression of SCL, LMO2 and FLI1 (dorsal lateral mesoderm specification) [4]: upregulated

B1: OSM: GP130 agonist (protein, UniProt P13725 26-221, looked up)
Oncostatin-M: AAIGSCSKEYRVLLGQLQKQTDLMQDTSRLLDPYIRIQGLDVPKLREHCRERPGAFPSEETLRGLGRRGFLQTLNATLGCVLHRLADLEQRLPKAQDLERSGLNIEDLEKLQMARPNILGLRNNIYCMAQLLDNSDTAEPTKAGRGASQPPTPTPASDAFQRKLEGCRFLHGYHRFMHSVGRVFSKWGESPNRSRR
RUNX1 expression by day 4 upon individual withdrawal of the agent from hemogenic endothelium medium [2]: reduced

B2: BMP: BMP agonist; BMP4 used in the experiments (protein, UniProt P12644 293-408, looked up)
Bone morphogenetic protein 4: SPKHHSQRARKKNKNCRRHSLYVDFSDVGWNDWIVAPPGYQAFYCHGDCPFPLADHLNSTNHAIVQTLVNSVNSSIPKACCVPTELSAISMLYLDEYDKVVLKNYQEMVVEGCGCR
expression of SCL, LMO2 and FLI1 (dorsal lateral mesoderm specification) [4]: upregulated
